Reference: the CombiSolv-Exp solvation set (Vermeire and Green 2021)
Values belong to the molecule of their own block, whether it stands above or below them.

Experiment: solvent given as SMILES

solvation free energy, 298 K (in O): -8.26 kcal/mol
Compound: CC(=O)c1cccnc1

solvation free energy, 298 K (in O): -0.55 kcal/mol
Compound: C=CC(C)=CCCC(=C)C

solvation free energy, 298 K (in CN(C)C=O): -11.9 kcal/mol
solvation free energy, 298 K (in O): -7.01 kcal/mol
Compound: COC(=O)c1ccc(N(C)C)cc1

solvation free energy, 298 K (in O): -0.5 kcal/mol
Compound: C=CC(=C)CCC=C(C)C

solvation free energy, 298 K (in O): -1.1 kcal/mol
Compound: COC(=O)C(F)(F)F

Compound: Clc1cccc(Cl)c1
solvation free energy, 298 K (in CCCCCC): -6.18 kcal/mol
solvation free energy, 298 K (in CCCCCCCCO): -5.63 kcal/mol
solvation free energy, 298 K (in O): -1.05 kcal/mol

solvation free energy, 298 K (in O): -10.2 kcal/mol
Compound: OCc1ccccc1O

Compound: O=C(O)c1cccc([N+](=O)[O-])c1
solvation free energy, 298 K (in C1CCOC1): -12.5 kcal/mol
solvation free energy, 298 K (in C1COCCO1): -12.2 kcal/mol
solvation free energy, 298 K (in CC(C)(C)O): -12.4 kcal/mol
solvation free energy, 298 K (in CC(C)CCO): -11.8 kcal/mol
solvation free energy, 298 K (in CC(C)CO): -12.1 kcal/mol
solvation free energy, 298 K (in CC(C)O): -12.4 kcal/mol
solvation free energy, 298 K (in CCC(C)O): -12.3 kcal/mol
solvation free energy, 298 K (in CCCC(C)O): -12.2 kcal/mol
solvation free energy, 298 K (in CCCCCCCCCCO): -11.8 kcal/mol
solvation free energy, 298 K (in CCCCCCCCO): -11.9 kcal/mol
solvation free energy, 298 K (in CCCCCCCO): -11.9 kcal/mol
solvation free energy, 298 K (in CCCCCCO): -12 kcal/mol
solvation free energy, 298 K (in CCCCCO): -12.1 kcal/mol
solvation free energy, 298 K (in CCCCO): -12.2 kcal/mol
solvation free energy, 298 K (in CCCCOC(C)=O): -11.6 kcal/mol
solvation free energy, 298 K (in CCCO): -12.3 kcal/mol
solvation free energy, 298 K (in CCO): -12.5 kcal/mol
solvation free energy, 298 K (in CCOC(C)=O): -11.9 kcal/mol
solvation free energy, 298 K (in CCOCC): -12.1 kcal/mol
solvation free energy, 298 K (in CO): -12.7 kcal/mol
solvation free energy, 298 K (in COC(C)=O): -12.1 kcal/mol
solvation free energy, 298 K (in O): -9.45 kcal/mol

solvation free energy, 298 K (in O): -6.19 kcal/mol
Compound: Oc1ccc(F)cc1

Compound: Oc1ccc2ccccc2c1
solvation free energy, 298 K (in Brc1ccccc1): -10.4 kcal/mol
solvation free energy, 298 K (in CC(C)CC(C)(C)C): -8.21 kcal/mol
solvation free energy, 298 K (in CCCCCC): -8.46 kcal/mol
solvation free energy, 298 K (in CCCCCCC): -8.53 kcal/mol
solvation free energy, 298 K (in CCCCCCCC): -8.63 kcal/mol
solvation free energy, 298 K (in CCCCCCCCCC): -8.61 kcal/mol
solvation free energy, 298 K (in ClC(Cl)(Cl)Cl): -9.45 kcal/mol
solvation free energy, 298 K (in ClC(Cl)Cl): -10.5 kcal/mol
solvation free energy, 298 K (in Clc1ccccc1): -10.3 kcal/mol
solvation free energy, 298 K (in O): -8.12 kcal/mol

solvation free energy, 298 K (in O): -5.07 kcal/mol
Compound: CC(=O)CC(=O)c1ccc(F)c(F)c1F

Compound: O=c1[nH]c2ccccc2n1C1CCN(CCCC(c2ccc(F)cc2)c2ccc(F)cc2)CC1
solvation free energy, 298 K (in C1COCCO1): -27.7 kcal/mol
solvation free energy, 298 K (in CC(C)O): -26.4 kcal/mol
solvation free energy, 298 K (in CCCCCCCCO): -26.7 kcal/mol
solvation free energy, 298 K (in CCCCCCCO): -26.8 kcal/mol
solvation free energy, 298 K (in CCCCCCO): -26.7 kcal/mol
solvation free energy, 298 K (in CCCCCO): -26.8 kcal/mol
solvation free energy, 298 K (in CCCCO): -26.7 kcal/mol
solvation free energy, 298 K (in CCCO): -26.6 kcal/mol
solvation free energy, 298 K (in CCO): -26.6 kcal/mol
solvation free energy, 298 K (in CCOC(C)=O): -26.6 kcal/mol
solvation free energy, 298 K (in CO): -26.6 kcal/mol

solvation free energy, 298 K (in CC#N): -2.7 kcal/mol
Compound: C=CC(C)CC (centres undefined)

Compound: ClCC(Cl)Cl
solvation free energy, 298 K (in CCCCCCCCO): -4.63 kcal/mol
solvation free energy, 298 K (in ClC(Cl)(Cl)Cl): -5.06 kcal/mol
solvation free energy, 298 K (in ClC(Cl)Cl): -5.28 kcal/mol
solvation free energy, 298 K (in ClCCCl): -5.47 kcal/mol
solvation free energy, 298 K (in O): -1.99 kcal/mol

Compound: O=S(=O)(c1ccccc1)c1ccccc1
solvation free energy, 298 K (in C1CCOC1): -14.9 kcal/mol
solvation free energy, 298 K (in C1COCCO1): -15 kcal/mol
solvation free energy, 298 K (in CC(C)(C)O): -13.2 kcal/mol
solvation free energy, 298 K (in CC(C)CC(C)(C)C): -11.6 kcal/mol
solvation free energy, 298 K (in CC(C)CCO): -13.1 kcal/mol
solvation free energy, 298 K (in CC(C)CO): -13.2 kcal/mol
solvation free energy, 298 K (in CC(C)O): -13.2 kcal/mol
solvation free energy, 298 K (in CC(C)OC(C)C): -13.1 kcal/mol
solvation free energy, 298 K (in CCC(C)CO): -13.2 kcal/mol
solvation free energy, 298 K (in CCC(C)O): -13.4 kcal/mol
solvation free energy, 298 K (in CCCC(C)O): -13.1 kcal/mol
solvation free energy, 298 K (in CCCCCC): -11.8 kcal/mol
solvation free energy, 298 K (in CCCCCCC): -11.8 kcal/mol
solvation free energy, 298 K (in CCCCCCCC): -11.8 kcal/mol
solvation free energy, 298 K (in CCCCCCCCCC): -11.8 kcal/mol
solvation free energy, 298 K (in CCCCCCCCCCO): -12.8 kcal/mol
solvation free energy, 298 K (in CCCCCCCO): -13.1 kcal/mol
solvation free energy, 298 K (in CCCCCCO): -13.2 kcal/mol
solvation free energy, 298 K (in CCCCCO): -13.3 kcal/mol
solvation free energy, 298 K (in CCCCCl): -14.1 kcal/mol
solvation free energy, 298 K (in CCCCO): -13.4 kcal/mol
solvation free energy, 298 K (in CCCCOC(C)=O): -14.2 kcal/mol
solvation free energy, 298 K (in CCCCOCCCC): -12.8 kcal/mol
solvation free energy, 298 K (in CCCO): -13.5 kcal/mol
solvation free energy, 298 K (in CCO): -13.6 kcal/mol
solvation free energy, 298 K (in CCOC(C)=O): -14.6 kcal/mol
solvation free energy, 298 K (in CCOCC): -13.7 kcal/mol
solvation free energy, 298 K (in CO): -13.8 kcal/mol
solvation free energy, 298 K (in COC(C)(C)C): -13.5 kcal/mol
solvation free energy, 298 K (in COC(C)=O): -14.7 kcal/mol
solvation free energy, 298 K (in O): -10.1 kcal/mol

solvation free energy, 298 K (in O): -9.2 kcal/mol
Compound: CCOC(=O)c1ccc(O)cc1

solvation free energy, 298 K (in CCCCCCC): -6.22 kcal/mol
Compound: CCCCCCCN
